Experimental data as given in ChEMBL document CHEMBL4007399, “Discovery and Synthesis of a Phosphoramidate Prodrug of a Pyrrolo[2,1-f][triazin-4-amino] Adenine C-Nucleoside (GS-5734) for the Treatment of Ebola and Emerging Viruses” (J Med Chem, 2017).
Activity calls are given as the source filed them. The rule behind the calls is not given here.

How the values were obtained:
Huh-7 = assay: (§1) Cytotoxicity against human HuH7 cells assessed as reduction in cell viability after 3 days by calcein-AM dye based fluorescence assay; conditions: huh-7, 72 h, 72 h
[1] = Cytotoxicity against human MT4 cells assessed as reduction in cell viability after 4 to 5 days by Cell-Titer Glo assay; type: cell-based; conditions: MT4 cells
Ebolavirus [2] = assay: Antiviral activity against Ebolavirus Kikwit infected in human macrophages preincubated with cells for 2 hrs followed by viral infection measured after 48 hrs; type: functional; conditions: Orthoebolavirus, Kikwit
Human orthopneumovirus = assay: Antiviral activity against Respiratory syncytial virus A2 infected in human Hep2 cells assessed as reduction of virus-induced cytopathic effect after 4 days by Cell-Titer Glo assay; type: functional, cell-based; conditions: human respiratory syncytial virus, A2, HEp-2, 96 h
Ebolavirus [3] = assay: Antiviral activity against GFP-fused Ebolavirus infected in TERT-immortalized HMVEC assessed as reduction in viral replication preincubated with cells followed by viral infection measured after 3 to 4 days by fluorescence assay; type: functional
Ebolavirus [4] = assay: Antiviral activity against Ebolavirus Kikwit infected in human HeLa cells assessed as reduction in viral glycoprotein levels preincubated with cells for 2 hrs followed by viral infection measured after 48 hrs by immunostaining based assay; type: functional, cell-based; conditions: Orthoebolavirus, Kikwit, HeLa
[5] = Cytotoxicity against human Hep2 cells assessed as reduction in cell viability after 4 to 5 days by Cell-Titer Glo assay; type: cell-based, HEp-2; conditions: HEp-2 cells
Hepatitis C virus = assay: Antiviral activity against Hepatitis C virus genotype 1b infected in human HuH7 cells preincubated with cells for 3 days followed by viral infection by luciferase assay; type: functional, cell-based, Hepacivirus hominis
Plasma = assay: (§2) Half life in human plasma at 2 uM by LC/MS/MS analysis; type: ADME, cell-free; conditions: 2 µM
[6] = Lipophilicity, log D of the compound after 30 mins by HPLC/UV method; type: physicochemical
[7] = as §2; type: ADME, cell-free
[8] = as §1; parameters: species or system Huh-7; conditions: Huh-7 cells
Ebolavirus [9] = assay: Antiviral activity against Ebolavirus in phase-1 acute meningoencephalytis patient assessed as viral clearance in plasma at 150 mg, iv qd administered daily for 2 days followed by 225 mg for 14 days; type: functional, organism-based
Ebolavirus [10] = assay: Antiviral activity against Ebolavirus infected in rhesus monkey assessed as increase in survival at 10 mg/kg, iv administered daily starting from day 3 post infection followed by 3 mg/kg for 11 days measured up to 28 days; type: functional, organism-based
Ebolavirus [11] = assay: Antiviral activity against Ebolavirus infected in rhesus monkey assessed as reduction in systemic viremia at 3 mg/kg, iv qd administered continuously starting from day 2 post infection for 12 days; type: functional, organism-based
Ebolavirus [12] = assay: Antiviral activity against Ebolavirus in phase-1 acute meningoencephalytis patient assessed as viral clearance in CNS at 150 mg, iv qd administered daily for 2 days followed by 225 mg for 14 days; type: functional, organism-based
Ebolavirus [13] = assay: Antiviral activity against Ebolavirus infected in newborn infant assessed as viral clearance; type: functional

SMILES	CC50 (Huh-7)	CC50 [1]	EC50 (Ebolavirus [2])	EC50 (Human orthopneumovirus)	EC50 (Ebolavirus [3])	EC50 (Ebolavirus [4])	CC50 [5]	EC50 (Hepatitis C virus)	t1/2 (Plasma)	logD at 0.5 h [6]	EC50 (Ebolavirus [3]; Orthoebolavirus, HMVEC)	half-life at 2 µM [7]	CC50 at 72 h [8]	Activity (Ebolavirus [9])	Activity (Ebolavirus [10])	Activity (Ebolavirus [11])	Activity (Ebolavirus [12])	Activity (Ebolavirus [13])
CCC(CC)COC(=O)[C@H](C)N[P@](=O)(OC[C@H]1O[C@@](C#N)(c2ccc3c(N)ncnn23)[C@H](O)[C@@H]1O)Oc1ccccc1 (mixture of isomers)	17 µM	2 µM	100 nM	27 nM	120 nM	170 nM	9.2 µM	23 nM	195 min	2.1								
CCC(CC)COC(=O)[C@H](C)N[P@@](=O)(OC[C@H]1O[C@@](C#N)(c2ccc3c(N)ncnn23)[C@H](O)[C@@H]1O)Oc1ccccc1			111 nM			80 nM				2	53 nM							
CCOC(=O)[C@H](Cc1ccccc1)NP(=O)(OC[C@H]1O[C@@](C#N)(c2ccc3c(N)ncnn23)[C@H](O)[C@@H]1O)Oc1ccccc1 (stereo partly drawn)		15 µM	270 nM			4380 nM				1.6	587 nM	1580 min						
N#C[C@@]1(c2ccc3c(N)ncnn23)O[C@H](CO)[C@@H](O)[C@H]1O [GS-441524]		> 57 µM	> 20000 nM	530 nM		> 20000 nM	> 100 µM			0.3	780 nM		> 88 µM					
CCC(CC)COC(=O)[C@H](C)N[P@](=O)(OC[C@H]1O[C@@](C#N)(c2ccc3c(N)ncnn23)[C@H](O)[C@@H]1O)Oc1ccccc1														Active	Active	Active	Active	Active
